Measurements: patent publication US20190071416A1, “COMPOUNDS FOR TREATMENT OF CANCER AND EPIGENETICS” (Agency For Science, Technology and Research, priority 2015, published 2019)

Target: T1, SMYD3 (Homo sapiens, UniProt Q9H7B4)
T1 sequence (Q9H7B4 1-428): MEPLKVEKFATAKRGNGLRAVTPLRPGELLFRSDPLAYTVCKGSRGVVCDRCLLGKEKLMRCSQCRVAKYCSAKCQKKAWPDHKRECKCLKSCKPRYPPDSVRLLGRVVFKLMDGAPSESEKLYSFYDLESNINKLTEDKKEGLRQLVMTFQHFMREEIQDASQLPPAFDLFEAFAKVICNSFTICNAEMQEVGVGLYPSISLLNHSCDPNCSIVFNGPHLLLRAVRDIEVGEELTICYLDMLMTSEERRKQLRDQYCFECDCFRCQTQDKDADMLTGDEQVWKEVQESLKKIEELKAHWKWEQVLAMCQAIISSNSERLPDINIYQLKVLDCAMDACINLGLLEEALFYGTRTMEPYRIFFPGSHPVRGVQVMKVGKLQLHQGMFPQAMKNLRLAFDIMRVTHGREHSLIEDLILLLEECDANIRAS
Test: SMYD3 biochemical assay (MTase-Glo, MAP3K2 peptide substrate)
Conditions: Table 3; MTase assay, MAP3K2 peptide substrate; read-out: IC50
Procedure: A SMYD3 enzymatic assay was developed using Promega's Methyltransferase-Glo™ reagents. In the assay, SMYD3 catalyzes the methylation of the MAP3K2 peptide substrate by transferring a methyl group from SAM to MAP3K2 peptide and further converts the SAM to SAH. The SMYD3 methyltransferase activity is measured based on the amount of SAH produced from the reaction through the use of coupling enzymes that convert the SAH to ATP. The MTase-Glo detection solution then catalyzes the formation of light from ATP.
A final concentration of 1.0 μM and 10 μM SAM and MAP3K2 peptide were added and further incubated for 30 min at room temperature before adding the MTase Glo and detection reagent. Reaction signals were detected using microplate readers on luminescent mode (Safire Tecan). The IC50 was determined by non-linear regression, using GraphPad Prism version, 5.03.

| SMILES | IC50 [nM] |
| --- | --- |
| CCCOC(=O)N1CCN(C(=O)c2ccc3c(Cl)cc(-c4cnc5[nH]ccc5c4)nc3c2)C[C@H]1C [B132, Propyl (R)-4-(4-chloro-2-(1H-pyrrolo[2,3-b]pyridin-5-yl)quinoline-7-carbonyl)-2-methylpiperazine-1-carboxylate] | 170 |
| CCCOC(=O)N1CCN(C(=O)c2ccc3c(Cl)c4c(nc3c2)CC(c2ccnc(C#N)c2)CC4)CC1 (stereo not shown) [A138, Propyl 4-(9-chloro-6-(2-cyanopyridin-4-yl)-5,6,7,8-tetrahydroacridine-3-carbonyl)piperazine-1-carboxylate] | 680 |
| CCCOC(=O)N1CCN(C(=O)c2ccc3c(Cl)cc(-c4cccc(N5CCOCC5)c4)nc3c2)C[C@H]1C [B069, Propyl (R)-4-(4-chloro-2-(3-morphohnophenyl)quinoline-7-carbonyl)-2-methylpiperazine-1-carboxylate] | 240 |
| CCCOC(=O)N1CCN(C(=O)c2ccc3c(Cl)c4c(nc3c2)CC(c2ccccc2)CC4)CC1 (stereo not shown) [A024, Propyl 4-(9-chloro-6-phenyl-5,6,7,8-tetrahydroacridine-3-carbonyl)piperazine-1-carboxylate] | 1200 |
| CCCOC(=O)N1CCN(C(=O)c2ccc3c(Cl)c(C)c(-c4cccc(F)c4F)nc3c2)CC1 [B030, Propyl 4-(4-chloro-2-(2,3-difluorophenyl)-3-methylquinoline-7-carbonyl)piperazine-1-carboxylate] | 5800 |
| CCCOC(=O)N1CCN(C(=O)c2ccc3c(Cl)cc(-c4ccn(C)c4)nc3c2)C[C@H]1C [B268, Propyl (R)-4-(4-chloro-2-(1-methyl-1H-pyrrol-3-yl)quinoline-7-carbonyl)-2-methylpiperazine-1-carboxylate] | 17 |
| CCCOC(=O)N1CCN(C(=O)c2ccc3c(Cl)c4c(nc3c2)CCCC4)CC1C (stereo not shown) [A018, Propyl 4-(9-chloro-5,6,7,8-tetrahydroacridine-3-carbonyl)-2-methylpiperazine-1-carboxylate] | 390 |
| CCCOC(=O)N1CCN(C(=O)c2ccc3c(Cl)c(C)c(-c4ccc(OC)cc4)nc3c2)C[C@@H]1C [B034, Propyl (S)-4-(4-chloro-2-(4-methoxyphenyl)-3-methylquinoline-7-carbonyl)-2-methylpiperazine-1-carboxylate] | 120 |
| CCCOC(=O)N1CCN(C(=O)c2ccc3c(Cl)cc(-c4cnc5[nH]c(C)cc5c4)nc3c2)CC1 [B175, Propyl 4-(4-chloro-2-(2-methyl-1H-pyrrolo[2,3-b]pyridin-5-yl)quinoline-7-carbonyl)piperazine-1-carboxylate] | 400 |
| CCCOC(=O)N1CCN(C(=O)c2ccc3c(Cl)c4c(nc3c2)CCCC4)CC1COC(=O)CCC (stereo not shown) [A061, Propyl 2-((butyryloxy)methyl)-4-(9-chloro-5,6,7,8-tetrahydroacridine-3-carbonyl)piperazine-1-carboxylate] | 4100 |
| CCCOC(=O)N1CCN(C(=O)c2ccc3c(Cl)cc(-c4ccc5ocnc5c4)nc3c2)C[C@H]1C [B243, Propyl (R)-4-(2-(benzo[d]oxazol-5-yl)-4-chloroquinoline-7-carbonyl)-2-methylpiperazine-1-carboxylate] | 63 |
| C[C@@H]1CN(C(=O)c2ccc3c(Cl)cc(C4CC4)nc3c2)CCN1C(=O)OCCF [B259, 2-Fluoroethyl (R)-4-(4-chloro-2-cyclopropylquinoline-7-carbonyl)-2-methylpiperazine-1-carboxylate] | 2600 |
| CCCOC(=O)N1CCN(C(=O)c2ccc3c(Cl)cc(-c4ccc(C(C)(C)O)cc4)nc3c2)CC1 [B244, Propyl 4-(4-chloro-2-(4-(2-hydroxypropan-2-yl)phenyl)quinoline-7-carbonyl)piperazine-1-carboxylate] | 140 |
| CCCOC(=O)N1CCN(C(=O)c2ccc3c(Cl)cc(-c4cnn(C5COC5)c4)nc3c2)C[C@@H]1C [B273, Propyl (S)-4-(4-chloro-2-(1-(oxetan-3-yl)-1H-pyrazol-4-yl)quinoline-7-carbonyl)-2-methylpiperazine-1-carboxylate] | 19 |
| C[C@@H]1CN(C(=O)c2ccc3c(Cl)cc(-c4ccn(C)c4)nc3c2)CCN1C(=O)C[C@H]1CCC(=O)N1 [D001, (R)-5-(2((R)-4-(4-Chloro-2-(1-methyl-1H-pyrrol-3-yl)quinoline-7-carbonyl)-2-methylpiperazin-1-yl)-2-oxoethyl)pyrrolidin-2-one] | 13600 |
| CCCOC(=O)N1CCN(C(=O)c2ccc3c(Cl)cc(-c4ccc(OC)cc4)nc3c2)CC1 [B046, Propyl 4-(4-chloro-2-(4-methoxyphenyl)quinoline-7-carbonyl)piperazine-1-carboxylate] | 260 |
| CCCOC(=O)N1CCN(C(=O)c2ccc3c(Cl)cc(-c4cc[nH]c4)nc3c2)[C@@H](C)C1 [B254, Propyl (S)-4-(4-chloro-2-(1H-pyrrol-3-yl)quinoline-7-carbonyl)-3-methylpiperazine-1-carboxylate] | 54 |

Continued by falling IC50, values first:

| IC50 [nM] | SMILES |
| --- | --- |
| 420 | CCCOC(=O)N1CCN(C(=O)c2ccc3c(Cl)c4c(nc3c2)CC(c2ccnc(C#N)c2)CC4)C[C@H]1C (stereo partly drawn) [A140, Propyl (2R)-4-(9-chloro-6-(2-cyanopyridin-4-yl)-5,6,7,8-tetrahydroacridine-3-carbonyl)-2-methylpiperazine-1-carboxylate] |
| 360 | CCCOC(=O)N1CCN(C(=O)c2ccc3c(Cl)cc(-c4ccc(F)c(O)c4)nc3c2)CC1 [B157, Propyl 4-(4-chloro-2-(4-fluoro-3-hydroxyphenyl)quinoline-7-carbonyl)piperazine-1-carboxylate] |
| 240 | CCCOC(=O)N1CCN(C(=O)c2ccc3c(Cl)c4c(nc3c2)CC(c2ccccn2)CC4)CC1 (stereo not shown) [A053, Propyl 4-(9-chloro-6-(pyridin-2-yl)-5,6,7,8-tetrahydroacridine-3-carbonyl)piperazine-1-carboxylate] |
| 160 | CCCOC(=O)N1CCN(C(=O)c2ccc3c(Cl)cc(-c4ccc(CN(C)C)cc4)nc3c2)CC1 [B110, Propyl 4-(4-chloro-2-(4-((dimethylamino)methyl)phenyl)quinoline-7-carbonyl)piperazine-1-carboxylate] |
| 140 | CCCOC(=O)N1CCN(C(=O)c2ccc3c(Cl)cc(-c4cccc(CN(C)C)c4)nc3c2)CC1 [B112, Propyl 4-(4-chloro-2-(3-((dimethylamino)methyl)phenyl)quinoline-7-carbonyl)piperazine-1-carboxylate] |
| 130 | CCCOC(=O)N1CCN(C(=O)c2ccc3c(Cl)cc(-c4ccc(CN(C)C)cc4)nc3c2)C[C@H]1C [B098, Propyl (R)-4-(4-chloro-2-(4-((dimethylamino)methyl)phenyl)quinoline-7-carbonyl)-2-methylpiperazine-1-carboxylate] |
| 120 | CCCOC(=O)N1CCN(C(=O)c2ccc3c(Cl)cc(-c4ccc(O)c(C)c4)nc3c2)CC1 [B202, Propyl 4-(4-chloro-2-(4-hydroxy-3-methylphenyl)quinoline-7-carbonyl)piperazine-1-carboxylate] |
| 100 | CCCOC(=O)N1CCN(C(=O)c2ccc3c(Cl)cc(-c4cccc(CN)c4)nc3c2)C[C@H]1C [B054, Propyl (R)-4-(2-(3-(aminomethyl)phenyl)-4-chloroquinoline-7-carbonyl)-2-methylpiperazine-1-carboxylate] |
| 87 | CCCOC(=O)N1CCN(C(=O)c2ccc3c(Cl)cc(-c4ccc5cn[nH]c5c4)nc3c2)CC1 [B129, Propyl 4-(4-chloro-2-(1H-indazol-6-yl)quinoline-7-carbonyl)piperazine-1-carboxylate] |
| 69 | CCCOC(=O)N1CCN(C(=O)c2ccc3c(Cl)cc(-c4ccc(C(=O)NC)cc4)nc3c2)C[C@@H]1C [B189, Propyl (S)-4-(4-chloro-2-(4-(methylcarbamoyl)phenyl)quinoline-7-carbonyl)-2-methylpiperazine-1-carboxylate] |
| 60 | CCCOC(=O)N1CCN(C(=O)c2ccc3c(Cl)cc(-c4cnn(C5CCCC5)c4)nc3c2)CC1 [B277, Propyl 4-(4-chloro-2-(1-cyclopentyl-1H-pyrazol-4-yl)quinoline-7-carbonyl)piperazine-1-carboxylate] |
| 60 | CCCOC(=O)N1CCN(C(=O)c2ccc3c(Cl)cc(-c4ccn(C)c4)nc3c2)C[C@@H]1C [B193, Propyl (S)-4-(4-chloro-2-(1-methyl-1H-pyrrol-3-yl)quinoline-7-carbonyl)-2-methylpiperazine-1-carboxylate] |
| 56 | CCCOC(=O)N1CCN(C(=O)c2ccc3c(Cl)cc(-c4ccc(N5CCN(C)CC5)cc4)nc3c2)C[C@H]1C [B095, Propyl (R)-4-(4-chloro-2-(4-(4-methylpiperazin-1-yl)phenyl)quinoline-7-carbonyl)-2-methylpiperazine-1-carboxylate] |
| 34 | CCCOC(=O)N1CCN(C(=O)c2ccc3c(Cl)cc(-c4ccc5[nH]cnc5c4)nc3c2)CC1 [B139, Propyl 4-(2-(1H-benzo[d]imidazol-5-yl)-4-chloroquinoline-7-carbonyl)piperazine-1-carboxylate] |
